The NIST ThermoML archive (doi:10.1021/je1013476)
Numbers after ± are expanded uncertainties.

Assays:
[1] = xn = mol fraction of the nth substance listed; settings: 101 kPa, Liquid; for viscosity: Capillary tube (Ostwald / Ubbelohde) method; for mass density: Vibrating tube method
[2] = excess molar enthalpy (molar enthalpy of mixing); xn = mol fraction of the nth substance listed; settings: 303.15 K, 101 kPa, Liquid, Calvet calorimetry

CCOC(=O)OCC [diethyl carbonate] + CCCCCCCCO
[1]
Settings | mass density [kg/m3] | viscosity [mPa·s]
288.15 K, x1 = 0.05879 | 834.94 ± 0.11 | 8.723 ± 0.081
288.15 K, x1 = 0.09178 | 838.6 ± 0.11 | 7.678 ± 0.071
288.15 K, x1 = 0.184 | 849.27 ± 0.11 | 5.521 ± 0.052
288.15 K, x1 = 0.2839 | 861.63 ± 0.1 | 3.992 ± 0.038
288.15 K, x1 = 0.4001 | 877.04 ± 0.1 | 2.876 ± 0.028
288.15 K, x1 = 0.5109 | 892.89 ± 0.09 | 2.157 ± 0.021
288.15 K, x1 = 0.598 | 906.21 ± 0.09 | 1.773 ± 0.017
288.15 K, x1 = 0.6927 | 921.66 ± 0.09 | 1.441 ± 0.014
288.15 K, x1 = 0.8073 | 941.89 ± 0.08 | 1.157 ± 0.011
288.15 K, x1 = 0.9275 | 965.14 ± 0.08 | 0.953 ± 0.009
288.15 K, x1 = 0.9531 | 970.42 ± 0.08 | 0.921 ± 0.009
293.15 K, x1 = 0.05259 | 830.75 ± 0.11 | 7.441 ± 0.069
293.15 K, x1 = 0.1047 | 836.45 ± 0.11 | 6.062 ± 0.057
293.15 K, x1 = 0.1967 | 847.03 ± 0.11 | 4.538 ± 0.043
293.15 K, x1 = 0.2955 | 859.15 ± 0.1 | 3.308 ± 0.032
293.15 K, x1 = 0.3964 | 872.38 ± 0.1 | 2.544 ± 0.024
293.15 K, x1 = 0.5031 | 887.37 ± 0.09 | 1.951 ± 0.019
293.15 K, x1 = 0.604 | 902.57 ± 0.09 | 1.573 ± 0.015
293.15 K, x1 = 0.6995 | 918.01 ± 0.09 | 1.285 ± 0.013
293.15 K, x1 = 0.8175 | 938.67 ± 0.08 | 1.039 ± 0.01
293.15 K, x1 = 0.9124 | 956.76 ± 0.08 | 0.9 ± 0.009
293.15 K, x1 = 0.9531 | 964.98 ± 0.08 | 0.853 ± 0.008
303.15 K, x1 = 0.05353 | 823.7 ± 0.12 | 5.282 ± 0.05
303.15 K, x1 = 0.1003 | 828.65 ± 0.11 | 4.522 ± 0.043
303.15 K, x1 = 0.1902 | 838.63 ± 0.11 | 3.432 ± 0.033
303.15 K, x1 = 0.3002 | 851.69 ± 0.1 | 2.536 ± 0.024
303.15 K, x1 = 0.4112 | 865.89 ± 0.1 | 1.928 ± 0.019
303.15 K, x1 = 0.5038 | 878.58 ± 0.1 | 1.584 ± 0.015
303.15 K, x1 = 0.5934 | 891.62 ± 0.09 | 1.32 ± 0.013
303.15 K, x1 = 0.6981 | 907.98 ± 0.09 | 1.075 ± 0.011
303.15 K, x1 = 0.8151 | 927.85 ± 0.08 | 0.884 ± 0.009
303.15 K, x1 = 0.9138 | 946.1 ± 0.08 | 0.773 ± 0.008
303.15 K, x1 = 0.9548 | 954.16 ± 0.08 | 0.74 ± 0.007
313.15 K, x1 = 0.05666 | 816.83 ± 0.12 | 3.842 ± 0.037
313.15 K, x1 = 0.1109 | 822.42 ± 0.12 | 3.267 ± 0.031
313.15 K, x1 = 0.1956 | 831.59 ± 0.11 | 2.59 ± 0.025
313.15 K, x1 = 0.2893 | 842.35 ± 0.11 | 2.054 ± 0.02
313.15 K, x1 = 0.4005 | 856.05 ± 0.1 | 1.585 ± 0.015
313.15 K, x1 = 0.5067 | 870.12 ± 0.1 | 1.273 ± 0.012
313.15 K, x1 = 0.6044 | 884.01 ± 0.09 | 1.059 ± 0.01
313.15 K, x1 = 0.7038 | 899.18 ± 0.09 | 0.893 ± 0.009
313.15 K, x1 = 0.8041 | 915.66 ± 0.09 | 0.766 ± 0.008
313.15 K, x1 = 0.9092 | 934.43 ± 0.08 | 0.672 ± 0.007
313.15 K, x1 = 0.954 | 942.96 ± 0.08 | 0.643 ± 0.006

[2]
Settings | excess molar enthalpy [kcal/mol]
x1 = 0.09134 | 0.176 ± 0.00382
x1 = 0.1276 | 0.236 ± 0.00502
x1 = 0.1764 | 0.31 ± 0.00669
x1 = 0.2484 | 0.394 ± 0.00837
x1 = 0.3155 | 0.46 ± 0.0098
x1 = 0.374 | 0.5 ± 0.0108
x1 = 0.4304 | 0.528 ± 0.0112
x1 = 0.491 | 0.544 ± 0.0117
x1 = 0.5699 | 0.542 ± 0.0115
x1 = 0.6268 | 0.529 ± 0.0112
x1 = 0.6895 | 0.499 ± 0.0108
x1 = 0.7492 | 0.455 ± 0.0098
x1 = 0.8111 | 0.387 ± 0.00837
x1 = 0.8705 | 0.298 ± 0.00645
x1 = 0.9357 | 0.167 ± 0.00359

CCOC(=O)OCC [diethyl carbonate] + CCCCCO
[1]
Settings | mass density [kg/m3] | viscosity [mPa·s]
288.15 K, x1 = 0.05026 | 826.9 ± 0.12 | 3.879 ± 0.037
288.15 K, x1 = 0.106 | 836.4 ± 0.12 | 3.215 ± 0.031
288.15 K, x1 = 0.1881 | 850.28 ± 0.11 | 2.529 ± 0.025
288.15 K, x1 = 0.2879 | 866.92 ± 0.11 | 1.972 ± 0.019
288.15 K, x1 = 0.396 | 884.69 ± 0.1 | 1.595 ± 0.016
288.15 K, x1 = 0.4905 | 900.03 ± 0.09 | 1.355 ± 0.013
288.15 K, x1 = 0.5917 | 916.28 ± 0.09 | 1.182 ± 0.012
288.15 K, x1 = 0.7104 | 935.09 ± 0.08 | 1.03 ± 0.01
288.15 K, x1 = 0.8067 | 950.23 ± 0.08 | 0.948 ± 0.009
288.15 K, x1 = 0.896 | 964.17 ± 0.08 | 0.898 ± 0.009
288.15 K, x1 = 0.9607 | 974.25 ± 0.08 | 0.871 ± 0.009
293.15 K, x1 = 0.04854 | 822.8 ± 0.13 | 3.391 ± 0.033
293.15 K, x1 = 0.0572 | 824.25 ± 0.12 | 3.292 ± 0.032
293.15 K, x1 = 0.1071 | 832.6 ± 0.12 | 2.796 ± 0.027
293.15 K, x1 = 0.1988 | 847.85 ± 0.11 | 2.138 ± 0.021
293.15 K, x1 = 0.29 | 862.87 ± 0.11 | 1.725 ± 0.017
293.15 K, x1 = 0.398 | 880.41 ± 0.1 | 1.402 ± 0.014
293.15 K, x1 = 0.4939 | 895.79 ± 0.1 | 1.202 ± 0.012
293.15 K, x1 = 0.5998 | 912.55 ± 0.09 | 1.049 ± 0.01
293.15 K, x1 = 0.6968 | 927.7 ± 0.09 | 0.947 ± 0.009
293.15 K, x1 = 0.8009 | 943.91 ± 0.08 | 0.869 ± 0.009
293.15 K, x1 = 0.8902 | 957.76 ± 0.08 | 0.826 ± 0.008
293.15 K, x1 = 0.9604 | 968.66 ± 0.08 | 0.808 ± 0.008
303.15 K, x1 = 0.06248 | 817.46 ± 0.13 | 2.453 ± 0.024
303.15 K, x1 = 0.09976 | 823.53 ± 0.12 | 2.195 ± 0.021
303.15 K, x1 = 0.2017 | 839.99 ± 0.12 | 1.686 ± 0.016
303.15 K, x1 = 0.2898 | 854.09 ± 0.11 | 1.395 ± 0.014
303.15 K, x1 = 0.3969 | 871 ± 0.1 | 1.159 ± 0.011
303.15 K, x1 = 0.4922 | 885.91 ± 0.1 | 1.013 ± 0.01
303.15 K, x1 = 0.5941 | 901.64 ± 0.09 | 0.893 ± 0.009
303.15 K, x1 = 0.6987 | 917.65 ± 0.09 | 0.808 ± 0.008
303.15 K, x1 = 0.8039 | 933.63 ± 0.08 | 0.75 ± 0.007
303.15 K, x1 = 0.8997 | 948.13 ± 0.08 | 0.715 ± 0.007
303.15 K, x1 = 0.9608 | 957.42 ± 0.08 | 0.703 ± 0.007
313.15 K, x1 = 0.05411 | 808.37 ± 0.13 | 1.951 ± 0.019
313.15 K, x1 = 0.1042 | 816.28 ± 0.13 | 1.705 ± 0.017
313.15 K, x1 = 0.1939 | 830.39 ± 0.12 | 1.373 ± 0.014
313.15 K, x1 = 0.29 | 845.34 ± 0.11 | 1.139 ± 0.011
313.15 K, x1 = 0.406 | 863.19 ± 0.11 | 0.95 ± 0.009
313.15 K, x1 = 0.4965 | 876.96 ± 0.1 | 0.847 ± 0.008
313.15 K, x1 = 0.5957 | 891.9 ± 0.1 | 0.763 ± 0.008
313.15 K, x1 = 0.7474 | 914.56 ± 0.09 | 0.675 ± 0.007
313.15 K, x1 = 0.803 | 922.81 ± 0.09 | 0.653 ± 0.007
313.15 K, x1 = 0.8997 | 937.15 ± 0.08 | 0.628 ± 0.006
313.15 K, x1 = 0.9582 | 945.86 ± 0.08 | 0.62 ± 0.006

[2]
Settings | excess molar enthalpy [kcal/mol]
x1 = 0.04842 | 0.0916 ± 0.00201
x1 = 0.085 | 0.156 ± 0.00335
x1 = 0.1521 | 0.251 ± 0.0055
x1 = 0.2122 | 0.326 ± 0.00693
x1 = 0.263 | 0.373 ± 0.00789
x1 = 0.3154 | 0.418 ± 0.00884
x1 = 0.3592 | 0.441 ± 0.00932
x1 = 0.4399 | 0.477 ± 0.0103
x1 = 0.4581 | 0.478 ± 0.0103
x1 = 0.5444 | 0.491 ± 0.0105
x1 = 0.64 | 0.47 ± 0.01
x1 = 0.6925 | 0.435 ± 0.00932
x1 = 0.7415 | 0.407 ± 0.0086
x1 = 0.7993 | 0.357 ± 0.00765
x1 = 0.8519 | 0.291 ± 0.00621
x1 = 0.9139 | 0.191 ± 0.00406
